Results: the supplement of paper PMC10307832

Assays:
Test in all cases: relative viability (nuclei count vs DMSO), 5 days (fraction); higher = more cells survive
Carfilzomib + Pictilisib = compound: CC(C)C[C@H](NC(=O)[C@H](CCc1ccccc1)NC(=O)CN1CCOCC1)C(=O)N[C@@H](Cc1ccccc1)C(=O)N[C@@H](CC(C)C)C(=O)[C@@]1(C)CO1 [Carfilzomib] + CS(=O)(=O)N1CCN(Cc2cc3nc(-c4cccc5[nH]ncc45)nc(N4CCOCC4)c3s2)CC1 [Pictilisib] (partner 1 µM)
Procedure, shortened: (§1)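 Lung cancer cell lines were seeded in 1536-well plates and dosed by pin tool the next day, with either a single drug or a fixed anchor-drug dose combined with five library-drug doses (not always all listed) spaced in √10 steps. Five days later, one step fixed the cells and stained their nuclei (final 0.05% Triton X-100, 1% formaldehyde, 1 ug/ml Hoechst), and nuclei were counted on 4× images. Relative viability is the nuclei count in treated wells divided by the count in vehicle wells, and each value is the median of duplicate plates.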

Crizotinib + Vorinostat = compound: C[C@@H](Oc1cc(-c2cnn(C3CCNCC3)c2)cnc1N)c1c(Cl)ccc(F)c1Cl [Crizotinib] + O=C(CCCCCCC(=O)Nc1ccccc1)NO [Vorinostat] (partner 1 µM)
Procedure, shortened: as §1

Carfilzomib + Olaparib = compound: CC(C)C[C@H](NC(=O)[C@H](CCc1ccccc1)NC(=O)CN1CCOCC1)C(=O)N[C@@H](Cc1ccccc1)C(=O)N[C@@H](CC(C)C)C(=O)[C@@]1(C)CO1 [Carfilzomib] + O=C(c1cc(Cc2n[nH]c(=O)c3ccccc23)ccc1F)N1CCN(C(=O)C2CC2)CC1 [Olaparib] (partner 8 µM)
Procedure, shortened: as §1

Crizotinib + Foretinib = compound: C[C@@H](Oc1cc(-c2cnn(C3CCNCC3)c2)cnc1N)c1c(Cl)ccc(F)c1Cl [Crizotinib] + COc1cc2c(Oc3ccc(NC(=O)C4(C(=O)Nc5ccc(F)cc5)CC4)cc3F)ccnc2cc1OCCCN1CCOCC1 [Foretinib] (partner 0.25 µM)
Procedure, shortened: as §1

Cell Line | relative viability (Carfilzomib + Pictilisib; first compound 0.001 µM) | relative viability (Carfilzomib + Pictilisib; first compound 0.003162 µM) | relative viability (Carfilzomib + Pictilisib; first compound 0.01 µM) | relative viability (Carfilzomib + Pictilisib; first compound 0.03162 µM) | relative viability (Carfilzomib + Pictilisib; first compound 0.1 µM) | relative viability (Crizotinib + Vorinostat; first compound 0.01 µM) | relative viability (Crizotinib + Vorinostat; first compound 0.03162 µM) | relative viability (Crizotinib + Vorinostat; first compound 0.1 µM) | relative viability (Crizotinib + Vorinostat; first compound 0.3162 µM) | relative viability (Crizotinib + Vorinostat; first compound 1 µM) | relative viability (Carfilzomib + Olaparib; first compound 0.001 µM) | relative viability (Carfilzomib + Olaparib; first compound 0.003162 µM) | relative viability (Carfilzomib + Olaparib; first compound 0.01 µM) | relative viability (Carfilzomib + Olaparib; first compound 0.03162 µM) | relative viability (Carfilzomib + Olaparib; first compound 0.1 µM) | relative viability (Crizotinib + Foretinib; first compound 0.01 µM) | relative viability (Crizotinib + Foretinib; first compound 0.03162 µM) | relative viability (Crizotinib + Foretinib; first compound 0.1 µM) | relative viability (Crizotinib + Foretinib; first compound 0.3162 µM) | relative viability (Crizotinib + Foretinib; first compound 1 µM)
NCI-H358 | 0.424 | 0.453 | 0.305 | 0.147 | 0.135 | 0.793 | 0.658 | 0.718 | 0.725 | 0.697 | 0.639 | 0.692 | 0.583 | 0.0792 | 0.0776 | 0.609 | 0.835 | 0.649 | 0.624 | 0.713
NCI-H441 | 0.486 | 0.569 | 0.144 | 0.105 | 0.141 | 0.799 | 0.774 | 0.63 | 0.768 | 0.965 | 0.749 | 0.542 | 0.288 | 0.146 | 0.15 | – | 0.958 | 0.931 | – | 0.825
NCI-H460 | 0.438 | 0.376 | 0.381 | 0.0673 | 0.0409 | 0.709 | 0.69 | 0.688 | 0.852 | 0.722 | 0.41 | 0.444 | 0.485 | 0.443 | 0.0304 | 0.801 | 1.05 | 0.996 | 1.02 | 1.07
NCI-H520 | 0.263 | 0.246 | 0.222 | 0.176 | 0.186 | 0.568 | 0.68 | 0.732 | 0.774 | 0.722 | 0.307 | 0.297 | 0.203 | 0.161 | 0.15 | 0.757 | 0.827 | 0.804 | – | 0.538
